“And” between values parts separate entries of the source, which are not always exact repeats. Equal entries are not always repeated. Where two headings read alike, the source gives them in different places.
What was measured:
[1] = system: Feline Infectious Peritonitis Virus

Compound: CC[C@H](CC[C@@H](C)[C@H]1CC[C@H]2[C@@H]3CC=C4C[C@@H](O[C@@H]5O[C@H](COS(=O)(=O)O)[C@@H](OS(=O)(=O)O)[C@H](OS(=O)(=O)O)[C@H]5OS(=O)(=O)O)CC[C@]4(C)[C@H]3CC[C@]12C)C(C)C [BSSG-(SO₄⁻)₄, β-Sitosteryl β-D-glucoside tetra-sulphate]
- viral cytopathic effect ([1]; 5, 12.5, 25 and 50 µg/mℓ, 10²-, […]): completely inhibited
- cytopathic effect of the drug alone ([1]; without virus): no cytopathic effect
- inhibition of P24 protein synthesis (HIV-1; 50 µg/mℓ, from a number of tests): 80 - 100%
- concentration that inhibits P24 protein synthesis by 50% (HIV-1; by extrapolation of the data in Table 3 (4 days), may vary with lymphocyte batch and HIV-1 titre): 9 µg/mL
- anti-HIV-1 effect (in words) (HIV-1; in terms of P24 protein production, Tables 1-3): marked anti-HIV-1 effects
- % INHIBITION OF P24 PROTEIN PRODUCTION (HIV-1; test concentration 0.78 µg/mℓ, duration 4 days): 4%
- % INHIBITION OF P24 PROTEIN PRODUCTION (HIV-1; test concentration 3.125 µg/mℓ, duration 4 days): 27%
- % INHIBITION OF P24 PROTEIN PRODUCTION (HIV-1; test concentration 10 µg/mℓ, duration 6 days): 55%
- % INHIBITION OF P24 PROTEIN PRODUCTION (HIV-1; test concentration 12.5 µg/mℓ, duration 4 days): 65%
- % INHIBITION OF P24 PROTEIN PRODUCTION (HIV-1; test concentration 25 µg/mℓ, duration 4 days): 61% and 88%
- % INHIBITION OF P24 PROTEIN PRODUCTION (HIV-1; test concentration 25 µg/mℓ, duration 6 days): 91%
- % INHIBITION OF P24 PROTEIN PRODUCTION (HIV-1; test concentration 50 µg/mℓ, duration 4 days): 83% and 96%
- % INHIBITION OF P24 PROTEIN PRODUCTION (HIV-1; test concentration 50 µg/mℓ, duration 6 days): 100%
- % INHIBITION OF P24 PROTEIN PRODUCTION (HIV-1; test concentration 100 µg/mℓ, duration 4 days): 99%

— patent EP0587374A2, “Sulfated sterol glycosides and their use against viral infections” (VIROSTAT (NA) NV, priority 1992, dated 1994)
